Data reported in patent US20220304941A1, “COMPOSITION FOR PREVENTING OR TREATING ORAL DISEASES” (TECOZYME INC, priority 2019, published 2022).

Legend:
human fibroblasts = experiment: Cytotoxicity test: culture viability of human fibroblasts (Cell Counting Kit-8); type: cell-based; settings: 48 hours treatment, FIG. 1
Description: First, to examine the biotoxicity of 1,2,3-butanetriol, culture survival experiments of human fibroblasts according to the concentration change of 1,2,3-butanetriol were conducted.
The initial seeding density was 5000 cells/well based on 96 wells, and the culture conditions were as follows:
Dulbecco's Modified Eagle Medium (DMEM)+Fetal Bovine Serum (FBS) 10%; 37° C., 5% CO2; and 12 hours after seeding, 1,2,3-butanetriol was treated at different concentrations to determine cytotoxicity, and after 48 hours of 1,2,3-butanetriol treatment, Dojindo Cell Counting Kit-8 was dispensed at a rate of 10 μl per well and incubated at 37° C. for 2 hours, then cell viability was measured at 450 nm Absorbance.
FIG. 1 is a graph illustrating the culture viability of human fibroblasts according to the concentration change of 1, 2,3-butanetriol, and the horizontal axis of FIG. 1 indicates the concentration of the treated 1,2,3-butanetriol in an mM unit.

bacteria in plaque = experiment: Antibacterial test of 1,2,3-butanetriol: growth of cultured plaque bacteria, absorption at 600 nm; type: cell-based, oral bacteria; settings: FIG. 2
Description: Subsequently, to examine the effect of inhibiting bacterial activity in plaque, bacterial strains were prepared as follows. First, plaque was collected from three research participants, and was cultured in a BHI medium (Bovine Heart Infusion 4 g/160 ml distilled water-DDW) with 1 wt. % sucrose added for 24 hours. From the above cultured strain, gDNA was extracted, and the bacteria were identified through PCR. BHI medium (Bovine Heart Infusion 4 g/160 ml distilled water-DDW) with 1wt. % sucrose added was prepared and sterilized in a high-temperature and high-pressure autoclave. Then, 1,2, 3-butanetriol (1,2,3-BT) was dispensed to each concentration, and a 96-well microplate containing 180 μl of the culture solution was prepared. Here, 20 μl of the culture solution in which the bacteria in plaque prepared above was proliferated was dispensed per well. This microplate was placed in a Biotek Synergy 2 microplate reader, the temperature was adjusted to 37° C., and the absorption rate was measured at 600 nm.

[1] = tested on: bacteria in plaque (species of Table 1); experiment: Antibacterial test of 1,2,3-butanetriol: gDNA extraction and PCR per bacterial species; type: cell-based, oral bacteria; settings: PCR of gDNA after butanetriol treatment, FIG. 3
Excerpt: From the above cultured strain, gDNA was extracted, and the bacteria were identified through PCR. [table] Separately from the absorption rate measurement, gDNA was extracted from the well microplate after treatment with butanetriol, and the results identified by PCR are shown in FIG. 3.

CC(O)C(O)CO (racemic) [1,2,3-butanetriol]
cell viability (human fibroblasts; concentration of about 12.5 mM or less): not significantly reduced
cell viability (human fibroblasts; concentration of about 25 mM): about 50%
effect of inhibiting bacterial growth (at least) (bacteria in plaque; 12 hours after culturing, compared to no 1,2,3-butanetriol treatment, lowest effect): at least 10%
effect of inhibiting bacterial growth (maximum) (bacteria in plaque; 12 hours after culturing, compared to no 1,2,3-butanetriol treatment, maximum effect): ≥ 50%
bacterial growth (bacteria in plaque; plaque bacteria in BHI medium with 1 wt. % sucrose, 37° C.): significantly effectively inhibited
growth inhibitory effect on each bacterial species [1]: clearly identified
